Assay [1] concerns tissue of medial septum nuclei. Briefly: acetylcholine synthesis activity of cultured medial septum nucleus tissue (method of Ojika et al.). The assay is classed as cell-based. To be noted: human-derived HCNP peptide compared with rat-derived HCNP. From the text:
The neurotrophic activity (also called neurotrophic factor activity) refers to, for example, an action of regulating differentiation and maturation of neuronal cells, namely, an action of accelerating the acetylcholine synthesis in the tissue of medial septum nuclei which is rich in cholinergic neurons.
The human-derived neurotrophic peptide or its derivatives of the present invention can regulate differentiation and maturation of neuronal cells. That is, the neurotrophic peptide and derivatives thereof accelerate the acetylcholine synthesis in the tissue of medial septum nuclei. The biological activity can be determined by the method of Ojika, K., et a. (Reference 66).
Medial septal nucleus was extracted from the brains of 16-day-old SD rat embryos and microscopically dissected into small pieces. […]
Except in the experiment for the study of sequential growth, the cultured tissue on the 9th day was washed with a Tris-HCl (pH 7.4) buffered Tyrode's solution, followed by preincubation in a high-K (55 mM KCl) Tyrode's solution, and then incubation in a Tyrode's solution containing ^3 H-choline chloride at 37° C. for 30 minutes. […] The choline uptake and Ach-productivity were expressed as amounts per one piece of cultured tissue. Choline acetyl-transferase (CATase) was measured using ^14 C-acetyl-CoA, according to the method of Fonnum, biochemical Journal, 115, 465-472 (1969). […]

The subject of assay [2] is tissue of medial septum nuclei. To be noted: rat medial septum nuclei acetylcholinergic neuron; Reference 1; cited from earlier work.

As for “H-PVDLSKWSGPL-OH [hHCNP, H-Pro-Val-Asp-Leu-Ser-Lys-Trp-Ser-Gly-Pro-Leu-OH]”, the “neurotrophic activity (acceleration of acetylcholine synthesis)” value in assay [1] is given as “neurotrophic activity similar to rat-derived HCNP was noted”. Regarding “HCNP: hippocampal cholinergic neurotrophic peptide composed of 11 amino acid residues isolated from hippocampal tissue of neonatal rat (AADISQWAGPL)”, the production of acetylcholine entry in assay [2] is listed as “enhances production of acetylcholine”.
